Measured values taken from US9617267B2, “Compounds and methods for kinase modulation, and indications therefor” (Plexxikon Inc., priority 2009, dated 2017).
Where two headings read alike, the source gives them in different places.

Assays:
CYP2D6 = CYP2D6 (Homo sapiens (Human), UniProt P10635); assay: CYP enzyme inhibition, fluorescent substrate (AMMC); format: in vitro ADME; settings: read-out: Cyp IC50 2D6
In short: (§1)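 Ten-point 1:1 compound dilutions in NADPH-regenerating cofactor mix, pre-incubated 10 min at 37 °C before enzyme/substrate addition: CYP1A2 0.5 pmol with 5 μM CEC, 15 min, 409 ex/460 em; CYP2D6 1.5 pmol with 1.5 μM AMMC, 30 min, 409 ex/530 em. IC50 from fluorescent product vs concentration.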

CYP3A4(BQ) = CYP3A4(BQ) (Homo sapiens (Human), UniProt P08684); assay: CYP enzyme inhibition, fluorescent substrate BQ
CYP3A4(BQ), sequence (P08684 whole entry): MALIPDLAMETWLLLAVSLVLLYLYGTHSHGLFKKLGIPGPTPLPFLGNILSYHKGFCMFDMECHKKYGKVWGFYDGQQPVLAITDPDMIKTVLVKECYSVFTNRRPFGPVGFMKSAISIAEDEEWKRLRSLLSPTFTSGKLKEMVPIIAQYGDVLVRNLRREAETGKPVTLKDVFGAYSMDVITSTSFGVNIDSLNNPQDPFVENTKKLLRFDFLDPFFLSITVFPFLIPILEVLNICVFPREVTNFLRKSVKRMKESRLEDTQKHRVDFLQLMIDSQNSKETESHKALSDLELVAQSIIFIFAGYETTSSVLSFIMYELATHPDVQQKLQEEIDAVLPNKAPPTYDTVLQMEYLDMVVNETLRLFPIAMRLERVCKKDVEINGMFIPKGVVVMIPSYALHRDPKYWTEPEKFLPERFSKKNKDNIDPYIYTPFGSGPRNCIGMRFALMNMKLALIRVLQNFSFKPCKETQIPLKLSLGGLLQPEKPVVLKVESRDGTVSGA
In short: (§2)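 Human CYP activity was followed by the fluorescence of the metabolized product of a known substrate, which falls as metabolism is inhibited. Compounds from 100 mM DMSO stocks were serially diluted 1:1 over 10 points in co-factor mix and preincubated 10 min at 37 °C. IC50 was fitted from signal versus concentration.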

CYP2C19 = CYP2C19 (Homo sapiens (Human), UniProt P33261); assay: CYP enzyme inhibition, fluorescent substrate (CEC)
CYP2C19, sequence (P33261 whole entry): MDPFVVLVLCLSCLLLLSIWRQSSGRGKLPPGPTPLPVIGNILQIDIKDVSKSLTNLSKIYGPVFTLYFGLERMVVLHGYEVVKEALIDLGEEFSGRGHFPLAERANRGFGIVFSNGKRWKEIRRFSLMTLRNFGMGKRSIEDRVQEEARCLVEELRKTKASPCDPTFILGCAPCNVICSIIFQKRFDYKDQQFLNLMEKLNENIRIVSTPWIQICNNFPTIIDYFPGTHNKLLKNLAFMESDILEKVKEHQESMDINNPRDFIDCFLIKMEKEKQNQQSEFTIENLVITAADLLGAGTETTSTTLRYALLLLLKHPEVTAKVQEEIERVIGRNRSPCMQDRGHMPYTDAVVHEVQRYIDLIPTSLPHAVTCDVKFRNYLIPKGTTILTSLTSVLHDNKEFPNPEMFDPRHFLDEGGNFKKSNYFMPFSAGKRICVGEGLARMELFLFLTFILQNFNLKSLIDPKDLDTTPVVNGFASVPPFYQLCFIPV
In short: as §2

CYP1A2 = CYP1A2 (Homo sapiens (Human), UniProt P05177); assay: CYP enzyme inhibition, fluorescent substrate (CEC); settings: human, 15 min
CYP1A2, sequence (P05177 whole entry): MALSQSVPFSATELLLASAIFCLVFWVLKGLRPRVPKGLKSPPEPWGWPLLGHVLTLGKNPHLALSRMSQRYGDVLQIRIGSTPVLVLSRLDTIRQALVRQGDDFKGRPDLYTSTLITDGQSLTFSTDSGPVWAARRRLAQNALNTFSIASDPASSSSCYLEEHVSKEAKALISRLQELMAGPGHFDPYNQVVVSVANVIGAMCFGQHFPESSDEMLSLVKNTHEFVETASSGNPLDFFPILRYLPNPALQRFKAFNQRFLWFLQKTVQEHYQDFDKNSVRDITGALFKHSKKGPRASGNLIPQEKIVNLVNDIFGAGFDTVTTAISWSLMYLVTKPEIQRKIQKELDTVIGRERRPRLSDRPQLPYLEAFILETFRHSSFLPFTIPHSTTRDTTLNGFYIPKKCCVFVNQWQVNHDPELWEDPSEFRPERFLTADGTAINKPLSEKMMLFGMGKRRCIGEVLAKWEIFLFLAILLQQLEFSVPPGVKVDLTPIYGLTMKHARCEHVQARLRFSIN
In short: as §1

CYP3A4(BFC) = CYP3A4(BFC) (Homo sapiens (Human), UniProt P08684); assay: CYP enzyme inhibition, fluorescent substrate BFC
CYP3A4(BFC), sequence (P08684 whole entry): as the sequence (P08684 whole entry) above
In short: as §2

B-Raf V600E = B-Raf V600E (Homo sapiens (Human), UniProt P15056, V600E); assay: B-Raf V600E kinase activity biochemical assay (AlphaScreen, biotin-MEK1 phosphorylation); settings: for IC50: B-Raf V600E; for Biochemical activity ratio V600E/C: ratio of IC50 B-Raf V600E / c-Raf-1
B-Raf V600E, sequence (P15056 whole entry V600E): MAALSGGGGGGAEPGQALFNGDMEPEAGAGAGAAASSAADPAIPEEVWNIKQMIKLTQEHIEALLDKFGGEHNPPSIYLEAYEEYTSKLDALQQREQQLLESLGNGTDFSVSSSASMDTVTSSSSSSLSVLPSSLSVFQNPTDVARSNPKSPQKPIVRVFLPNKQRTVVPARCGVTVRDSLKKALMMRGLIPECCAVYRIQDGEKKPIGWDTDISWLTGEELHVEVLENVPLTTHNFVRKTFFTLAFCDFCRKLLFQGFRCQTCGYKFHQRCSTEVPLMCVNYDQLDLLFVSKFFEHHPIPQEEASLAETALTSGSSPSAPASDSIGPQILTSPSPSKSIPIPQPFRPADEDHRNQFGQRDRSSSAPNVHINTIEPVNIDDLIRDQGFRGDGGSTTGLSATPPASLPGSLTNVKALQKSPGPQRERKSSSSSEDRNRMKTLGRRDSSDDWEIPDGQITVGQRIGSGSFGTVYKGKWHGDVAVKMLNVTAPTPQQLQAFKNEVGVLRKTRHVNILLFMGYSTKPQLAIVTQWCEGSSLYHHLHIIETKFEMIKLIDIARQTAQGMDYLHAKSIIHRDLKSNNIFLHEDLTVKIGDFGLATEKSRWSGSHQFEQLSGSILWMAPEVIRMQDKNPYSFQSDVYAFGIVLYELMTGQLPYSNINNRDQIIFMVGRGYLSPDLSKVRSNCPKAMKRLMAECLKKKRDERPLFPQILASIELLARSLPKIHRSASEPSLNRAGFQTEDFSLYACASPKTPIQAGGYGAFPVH
In short: (§3)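 Biotin-MEK1 phosphorylation measured after 45 min kinase reaction at RT with 100 μM ATP final; compounds tested at 8 points from 0.1 mM DMSO stock.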

[1] = Relative solubility by turbidity threshold concentration in aqueous buffers (pH 1.5, 4.5, 6.8, 7.4); format: physicochemical; settings: for turbidity threshold (L, M, H) 1.4: pH 1.4 [sic] (method: SGF pH 1.5); for turbidity threshold (L, M, H) 4.5: pH 4.5 (SIF); for turbidity threshold (L, M, H) 6.8: pH 6.8 (SIF); for turbidity threshold (L, M, H) 7.4: pH 7.4 (HEPES)
In short: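 Solubility class (high >250 μM, moderate 31.3–250 μM, low <31.3 μM) comes from the concentration where absorbance reaches a 0.01 threshold, averaged across 490/535/650 nm. Samples were compound dilutions from DMSO stock, 1 μL into 99 μL buffer at pH 1.5, 4.5, 6.8 or 7.4.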

c-Raf-1 = c-Raf-1 (Homo sapiens, UniProt P04049); assay: c-Raf-1 kinase activity biochemical assay (AlphaScreen, biotin-MEK1 phosphorylation)
c-Raf-1, sequence (P04049 whole entry, looked up): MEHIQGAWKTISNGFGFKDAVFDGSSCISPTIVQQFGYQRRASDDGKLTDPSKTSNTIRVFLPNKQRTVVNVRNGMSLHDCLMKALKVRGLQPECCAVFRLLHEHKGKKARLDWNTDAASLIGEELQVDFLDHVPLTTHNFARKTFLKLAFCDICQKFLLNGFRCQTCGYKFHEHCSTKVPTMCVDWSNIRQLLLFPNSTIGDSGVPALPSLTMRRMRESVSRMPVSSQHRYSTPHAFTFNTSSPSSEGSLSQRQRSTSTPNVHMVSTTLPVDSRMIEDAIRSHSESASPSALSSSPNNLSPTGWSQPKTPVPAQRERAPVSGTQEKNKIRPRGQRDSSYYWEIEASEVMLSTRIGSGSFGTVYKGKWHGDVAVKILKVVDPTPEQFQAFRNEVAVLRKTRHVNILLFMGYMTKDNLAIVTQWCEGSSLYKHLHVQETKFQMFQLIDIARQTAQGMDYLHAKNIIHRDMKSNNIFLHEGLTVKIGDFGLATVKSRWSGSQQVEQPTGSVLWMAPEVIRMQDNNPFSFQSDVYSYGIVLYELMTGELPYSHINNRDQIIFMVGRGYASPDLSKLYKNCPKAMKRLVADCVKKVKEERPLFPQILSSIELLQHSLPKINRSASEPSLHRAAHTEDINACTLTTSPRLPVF
In short: as §3

B-Raf [2] = assay: B-Raf kinase activity biochemical assay (AlphaScreen, biotin-MEK1 phosphorylation); settings: for Biochemical activity ratio B/V600E: ratio of IC50 B-Raf / B-Raf V600E; for Biochemical activity ratio B/C: ratio of IC50 B-Raf / c-Raf-1
In short: as §3

B-Raf [3] = molecular target: B-Raf (Homo sapiens (Human), UniProt P15056); assay: as above; settings: B-Raf
B-Raf (Homo sapiens (Human), UniProt P15056), sequence (P15056 whole entry): as the sequence (P15056 whole entry V600E) above, with E600V counted along it
In short: as §3

CYP2C9 = CYP2C9 (Homo sapiens (Human), UniProt P11712); assay: CYP enzyme inhibition, fluorescent substrate (MFC)
CYP2C9, sequence (P11712 whole entry): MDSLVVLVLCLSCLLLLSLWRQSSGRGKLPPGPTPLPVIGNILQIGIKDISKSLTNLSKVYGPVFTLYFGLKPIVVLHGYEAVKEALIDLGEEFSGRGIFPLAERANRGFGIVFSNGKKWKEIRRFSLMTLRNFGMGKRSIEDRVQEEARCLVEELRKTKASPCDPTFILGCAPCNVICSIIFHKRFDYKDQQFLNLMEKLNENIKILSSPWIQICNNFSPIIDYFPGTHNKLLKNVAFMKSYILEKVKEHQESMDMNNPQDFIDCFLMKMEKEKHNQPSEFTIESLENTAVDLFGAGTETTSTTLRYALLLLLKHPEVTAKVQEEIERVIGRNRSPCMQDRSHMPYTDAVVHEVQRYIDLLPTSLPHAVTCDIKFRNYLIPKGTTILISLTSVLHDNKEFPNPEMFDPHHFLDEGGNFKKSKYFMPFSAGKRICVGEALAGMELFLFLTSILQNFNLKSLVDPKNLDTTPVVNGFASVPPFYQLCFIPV
In short: as §2

[4] = read-out: Cyp IC50 3A4(BQ), CYP3A4, substrate BQ
[5] = read-out: Cyp IC50 2C19, CYP2C19, substrate CEC
[6] = read-out: Cyp IC50 3A4(BFC), CYP3A4, substrate BFC
[7] = read-out: Cyp IC50 2C9, CYP2C9, substrate MFC

CYP2D6, sequence (P10635 whole entry): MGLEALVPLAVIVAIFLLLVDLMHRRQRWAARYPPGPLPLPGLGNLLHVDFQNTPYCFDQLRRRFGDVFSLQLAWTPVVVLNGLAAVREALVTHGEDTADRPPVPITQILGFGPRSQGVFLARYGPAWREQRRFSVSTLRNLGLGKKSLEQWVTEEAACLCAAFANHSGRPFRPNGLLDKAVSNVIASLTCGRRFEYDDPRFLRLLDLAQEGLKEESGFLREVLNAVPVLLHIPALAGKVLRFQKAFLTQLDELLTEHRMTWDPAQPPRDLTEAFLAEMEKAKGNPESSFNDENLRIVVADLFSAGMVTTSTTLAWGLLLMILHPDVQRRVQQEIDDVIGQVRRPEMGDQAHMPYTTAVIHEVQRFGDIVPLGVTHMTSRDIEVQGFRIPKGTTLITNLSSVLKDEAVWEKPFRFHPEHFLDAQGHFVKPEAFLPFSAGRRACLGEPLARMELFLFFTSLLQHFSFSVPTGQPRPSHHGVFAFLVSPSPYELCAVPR

Row | Structure (SMILES) | IC50 (CYP2D6) [µM] | IC50 (CYP3A4(BQ); [4]) [µM] | IC50 (CYP2C19; [5]) [µM] | IC50 (CYP1A2) [µM] | IC50 (CYP3A4(BFC); [6]) [µM] | IC50 (B-Raf V600E) [µM] | Biochemical activity ratio V600E/C (B-Raf V600E) | turbidity threshold (L, M, H) 1.4 [1] | turbidity threshold (L, M, H) 4.5 [1] | turbidity threshold (L, M, H) 6.8 [1] | turbidity threshold (L, M, H) 7.4 [1] | IC50 (c-Raf-1) [µM] | Biochemical activity ratio B/V600E (B-Raf [2]) | Biochemical activity ratio B/C (B-Raf [2]) | IC50 (B-Raf [3]) [µM] | IC50 (CYP2C9; [7]) [µM] | IC50 (CYP3A4(BFC)) [µM] | IC50 (CYP3A4(BQ)) [µM] | IC50 (CYP2C19) [µM] | IC50 (CYP2C9) [µM]
1 | CN1CCC(Nc2ncnc3[nH]cc(C(=O)c4c(F)ccc(NS(=O)(=O)c5ccc(C(F)(F)F)cc5)c4F)c23)CC1 [P-1057, N-{2,4-Difluoro-3-[4-(1-methyl-piperidin-4-ylamino)-7H-pyrrolo[2,3-d]pyrimidine-5-carbonyl]-phenyl}-4-trifluoromethyl-benzenesulfonamide] | > 10 | > 10 | > 10 | > 10 | > 10 | > 0.1 | >10 | H (high solubility if the threshold concentration is >250 μm) | H (high solubility if the threshold concentration is >250 μm) | M (moderate solubility if the threshold concentration is 31.3 μM to 250 μM) | M (moderate solubility if the threshold concentration is 31.3 μM to 250 μM) | < 0.1 | 0.1-10 | 0.1-10 | < 0.1 | > 10 | – | – | – | –
2 | COCCNc1ncnc2[nH]cc(C(=O)c3c(F)ccc(NS(=O)(=O)c4ccc(C(F)(F)F)cc4)c3F)c12 [P-1058, N-{2,4-Difluoro-3-[4-(2-methoxy-ethylamino)-7H-pyrrolo[2,3-d]pyrimidine-5-carbonyl]-phenyl}-4-trifluoromethyl-benzenesulfonamide] | > 10 | > 10 | > 10 | > 10 | – | > 0.1 | >10 | M (moderate solubility if the threshold concentration is 31.3 μM to 250 μM) | L (low solubility if the threshold concentration is <31.3 μM) | L (low solubility if the threshold concentration is <31.3 μM) | L (low solubility if the threshold concentration is <31.3 μM) | < 0.1 | 0.1-10 | 0.1-10 | < 0.1 | > 10 | 5 to 10 | – | – | –
3 | CN(C)CCNc1ncnc2[nH]cc(C(=O)c3c(F)ccc(NS(=O)(=O)c4ccc(C(F)(F)F)cc4)c3F)c12 [P-1059, N-{3-[4-(2-Dimethylamino-ethylamino)-7H-pyrrolo[2,3-d]pyrimidine-5-carbonyl]-2,4-difluoro-phenyl}-4-trifluoromethyl-benzenesulfonamide] | > 10 | > 10 | > 10 | > 10 | > 10 | > 0.1 | >10 | H (high solubility if the threshold concentration is >250 μm) | M (moderate solubility if the threshold concentration is 31.3 μM to 250 μM) | M (moderate solubility if the threshold concentration is 31.3 μM to 250 μM) | M (moderate solubility if the threshold concentration is 31.3 μM to 250 μM) | < 0.1 | 0.1-10 | 0.1-10 | > 0.1 | > 10 | – | – | – | –
4 | CCCS(=O)(=O)Nc1ccc(F)c(C(=O)c2c[nH]c3ncnc(NC4COC4)c23)c1F [P-1060, Propane-1-sulfonic acid {2,4-difluoro-3-[4-(oxetan-3-ylamino)-7H-pyrrolo[2,3-d]pyrimidine-5-carbonyl]-phenyl}-amide] | > 10 | > 10 | > 10 | > 10 | > 10 | < 0.1 | 0.1-10 | H (high solubility if the threshold concentration is >250 μm) | M (moderate solubility if the threshold concentration is 31.3 μM to 250 μM) | H (high solubility if the threshold concentration is >250 μm) | H (high solubility if the threshold concentration is >250 μm) | < 0.1 | 0.1-10 | >10 | < 0.1 | > 10 | – | – | – | –
5 | O=C(c1c(F)ccc(NS(=O)(=O)c2ccc(C(F)(F)F)cc2)c1F)c1c[nH]c2ncnc(N3CCCC3)c12 [P-1061, N-[2,4-Difluoro-3-(4-pyrrolidin-1-yl-7H-pyrrolo[2,3-d]pyrimidine-5-carbonyl)-phenyl]-4-trifluoromethyl-benzenesulfonamide] | > 10 | > 10 | > 10 | > 10 | > 10 | > 0.1 | >10 | H (high solubility if the threshold concentration is >250 μm) | M (moderate solubility if the threshold concentration is 31.3 μM to 250 μM) | M (moderate solubility if the threshold concentration is 31.3 μM to 250 μM) | H (high solubility if the threshold concentration is >250 μm) | > 0.1 | 0.1-10 | 0.1-10 | > 0.1 | > 10 | – | – | – | –
6 | Cn1cc(Nc2ncnc3[nH]cc(C(=O)c4c(F)ccc(NS(=O)(=O)c5ccc(C(F)(F)F)cc5)c4F)c23)cn1 [P-1062, N-{2,4-Difluoro-3-[4-(1-methyl-1H-pyrazol-4-ylamino)-7H-pyrrolo[2,3-d]pyrimidine-5-carbonyl]-phenyl}-4-trifluoromethyl-benzenesulfonamide] | > 10 | – | > 10 | > 10 | – | < 0.1 | >10 | L (low solubility if the threshold concentration is <31.3 μM) | L (low solubility if the threshold concentration is <31.3 μM) | L (low solubility if the threshold concentration is <31.3 μM) | L (low solubility if the threshold concentration is <31.3 μM) | < 0.1 | 0.1-10 | >10 | < 0.1 | < 5 | 5 to 10 | 5 to 10 | – | –
7 | CCn1cc(Nc2ncnc3[nH]cc(C(=O)c4c(F)ccc(NS(=O)(=O)c5ccc(C(F)(F)F)cc5)c4F)c23)cn1 [P-1063, N-{3-[4-(1-Ethyl-1H-pyrazol-4-ylamino)-7H-pyrrolo[2,3-d]pyrimidine-5-carbonyl]-2,4-difluoro-phenyl}-4-trifluoromethyl-benzenesulfonamide] | > 10 | < 5 | – | > 10 | – | > 0.1 | >10 | L (low solubility if the threshold concentration is <31.3 μM) | L (low solubility if the threshold concentration is <31.3 μM) | L (low solubility if the threshold concentration is <31.3 μM) | L (low solubility if the threshold concentration is <31.3 μM) | < 0.1 | 0.1-10 | >10 | < 0.1 | – | 5 to 10 | – | 5 to 10 | 5 to 10
